Patent US20130210911A1, “METHOD AND COMPOSITION FOR TREATING A DISEASE OR CONDITION RELATED TO OREXIN RECEPTOR 1, OREXIN RECEPTOR 2, SOMATOSTATIN RECEPTOR 2 OR DOPAMINE D2L RECEPTOR” (CENTER LABORATORIES, INC., priority 2009, published 2013)
Structures can show the parent of a compound that is named as a salt. Where two headings read alike, the source gives them in different places.

What was measured:
Orexin receptor 1 = biological target: T1, Orexin receptor 1 (Homo sapiens, UniProt O43613); test: biochemical; conditions: for nH (Hill coefficient): human orexin receptor 1 binding
T1 sequence (O43613 1-425): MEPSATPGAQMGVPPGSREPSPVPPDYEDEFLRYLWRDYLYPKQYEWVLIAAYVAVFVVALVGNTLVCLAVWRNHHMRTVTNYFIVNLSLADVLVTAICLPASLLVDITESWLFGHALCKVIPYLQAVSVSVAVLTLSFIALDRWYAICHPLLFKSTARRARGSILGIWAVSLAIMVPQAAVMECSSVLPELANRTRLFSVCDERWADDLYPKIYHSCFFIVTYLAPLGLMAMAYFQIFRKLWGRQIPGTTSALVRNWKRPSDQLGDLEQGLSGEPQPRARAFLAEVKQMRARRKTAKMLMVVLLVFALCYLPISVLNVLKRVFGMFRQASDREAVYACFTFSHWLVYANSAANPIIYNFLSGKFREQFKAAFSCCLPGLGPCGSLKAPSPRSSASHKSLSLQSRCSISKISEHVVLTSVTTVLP
Protocol: (§1) Binding activity was evaluated to assess the selectivity of verapamil on various receptors. The binding activity of the reported receptors was analyzed using the following known methods. Primary screening were performed in duplicate and presented in semi-quantitative data (e.g., IC50, Ki and nH). Where presented, IC50 values were determined by a non-linear, least squares regression analysis using MathIQ™ (ID Bussiness Solutions Ltd., UK). […] Where presented, the Hill coefficient (nH), defining the slope of the competitive binding curve, was calculated using MathIQ™.
(§2) Orexin receptor 1 or 2 binding affinity was examined using the methods disclosed by Kukkonen et al., (2002) Am J Physiol Cell Physiol. 283:C1567-C1591; and Langmead et al., (2004) Br J Pharmacol. 141(2):340-346. […] Pharmacol. 58:254-264; and Spedding. (1984) M. Eur J Pharmacol. 83:211. Somaostatin receptor 2 binding activity was estimated by the method described by Feniuk et al., (1993) Br J Pharmacol. 110:1156-1164. Adenosine receptor binding activity was examined using the method described by Varani et al., (1996) Br J Pharmacol. 117:1693-1701. Bradykinin receptor binding activity was examined using the methods described by Horlick et al., (1999) Immunopharmacology 43(2-3):169-177; and Phagoo et al., (2001) J Pharmacol Exp Ther 298(1):77-85. Calcium channel (N-type) binding activity was examined using the method disclosed by Moresco et al., (1990) Neurobiol of Aging. 11(4):433-436. Cannabinoid receptor binding activity was examined using the method disclosed by Reggio et al., (1998) J Med Chem 41(26):5177-5187. […] Estrogen receptors (including ERα and ERβ) were examined using the method disclosed by Obourn et al., (1993) Biochem 32:6229-6236. GABA receptor (including GABAA and GABAB1A,) binding activity was examined using methods disclosed by Lewin et al., (1989) Mol Pharmacol 35:189-194; Maksay G. (1993) Eur J Pharmacol 246:255-260; Enna and Snyder, (1977) Mol Pharmacol. 13:442-453; Martini et al., (1983) J Neurochem. […] Leptin receptor binding activity was examined using the method disclosed by Fong et al., (1998) Mol Pharmacol 53:234-240. […] 75(6):2590-2601. Tachykinin receptor binding activity was examined using the method disclosed by Patacchini and Maggi, (1995) Arch Int Pharmacodyn. 329:161-184. Vanilloid receptor binding activity was examined using the methods disclosed by Szallasi et al., (1993) J Pharmacol Exp Ther. 267(2):728-733. Melatonin receptor binding activity was examined using the methods disclosed by Beresford et al., (1998) J Pharmacol Exp Ther 285(3):1239-1245; and Paul et al., (1999) J Pharmacol Exp Ther 290(1):334-340. Serotonin receptor binding activity was examined using the methods disclosed by Bonhaus et al., (1995) Br J Pharmacol 115:622-628; and Saucier and Albert (1997) J. Neuorchem 68:1998-2011.

Orexin receptor 2 = biological target: T2, Orexin receptor 2 (Homo sapiens, UniProt O43614); test: biochemical; conditions: for nH (Hill coefficient): human orexin receptor 2 binding
T2 sequence (O43614 1-444): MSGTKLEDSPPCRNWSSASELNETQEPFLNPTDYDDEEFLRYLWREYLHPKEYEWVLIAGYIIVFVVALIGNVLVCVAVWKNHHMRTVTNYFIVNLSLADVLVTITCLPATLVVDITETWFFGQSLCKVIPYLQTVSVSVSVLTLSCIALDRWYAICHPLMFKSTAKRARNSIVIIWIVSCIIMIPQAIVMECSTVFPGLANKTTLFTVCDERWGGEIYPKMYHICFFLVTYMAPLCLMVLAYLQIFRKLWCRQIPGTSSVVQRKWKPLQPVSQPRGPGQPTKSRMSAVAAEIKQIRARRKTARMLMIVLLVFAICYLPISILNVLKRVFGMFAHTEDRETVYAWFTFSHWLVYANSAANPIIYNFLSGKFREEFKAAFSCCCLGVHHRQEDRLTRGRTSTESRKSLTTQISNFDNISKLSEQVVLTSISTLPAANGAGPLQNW
Protocol: as §1, §2

Sodium Channel, Site 2 = test: Sodium channel, site 2 binding assay; set-up: species or system rat
Somatostatin receptor 2 = Somatostatin receptor 2 (Cavia porcellus, UniProt A0A286XKC5); test: Somatostatin tissue assay; conditions: guinea pig tissue
Source text: (§3) Orexin receptor 1 or 2 binding affinity was examined using the methods disclosed by Kukkonen et al., (2002) Am J Physiol Cell Physiol. 283:C1567-C1591; and Langmead et al., (2004) Br J Pharmacol. 141(2):340-346. […] Pharmacol. 58:254-264; and Spedding. (1984) M. Eur J Pharmacol. 83:211. Somaostatin receptor 2 binding activity was estimated by the method described by Feniuk et al., (1993) Br J Pharmacol. 110:1156-1164. Adenosine receptor binding activity was examined using the method described by Varani et al., (1996) Br J Pharmacol. 117:1693-1701. Bradykinin receptor binding activity was examined using the methods described by Horlick et al., (1999) Immunopharmacology 43(2-3):169-177; and Phagoo et al., (2001) J Pharmacol Exp Ther 298(1):77-85. Calcium channel (N-type) binding activity was examined using the method disclosed by Moresco et al., (1990) Neurobiol of Aging. 11(4):433-436. Cannabinoid receptor binding activity was examined using the method disclosed by Reggio et al., (1998) J Med Chem 41(26):5177-5187. […] Estrogen receptors (including ERα and ERβ) were examined using the method disclosed by Obourn et al., (1993) Biochem 32:6229-6236. […]

Dopamine D2L receptor = Dopamine D2L receptor (Homo sapiens, UniProt P14416)
Source text: as §3

N-type calcium channel = N-type calcium channel (Rattus norvegicus, UniProt Q02294); test: Calcium channel (N-type) binding activity; conditions: data not shown
Source text: (§4) Pharmacol. 58:254-264; and Spedding. (1984) M. Eur J Pharmacol. 83:211. […] 11(4):433-436. […] 75(6):2590-2601. […] 329:161-184.

Serotonin receptor = conditions: data not shown
Protocol: as §1
Orexin receptor 1 or 2 binding affinity was examined using the methods disclosed by Kukkonen et al., (2002) Am J Physiol Cell Physiol. 283:C1567-C1591; and Langmead et al., (2004) Br J Pharmacol. 141(2):340-346. […] Pharmacol. 58:254-264; and Spedding. (1984) M. Eur J Pharmacol. 83:211. Somaostatin receptor 2 binding activity was estimated by the method described by Feniuk et al., (1993) Br J Pharmacol. 110:1156-1164. Adenosine receptor binding activity was examined using the method described by Varani et al., (1996) Br J Pharmacol. 117:1693-1701. Bradykinin receptor binding activity was examined using the methods described by Horlick et al., (1999) Immunopharmacology 43(2-3):169-177; and Phagoo et al., (2001) J Pharmacol Exp Ther 298(1):77-85. […]

Melatonin receptor = Melatonin receptor binding activity; conditions: data not shown
Source text: as §4

Chain of Dopamine D2L receptor (P14416 whole entry): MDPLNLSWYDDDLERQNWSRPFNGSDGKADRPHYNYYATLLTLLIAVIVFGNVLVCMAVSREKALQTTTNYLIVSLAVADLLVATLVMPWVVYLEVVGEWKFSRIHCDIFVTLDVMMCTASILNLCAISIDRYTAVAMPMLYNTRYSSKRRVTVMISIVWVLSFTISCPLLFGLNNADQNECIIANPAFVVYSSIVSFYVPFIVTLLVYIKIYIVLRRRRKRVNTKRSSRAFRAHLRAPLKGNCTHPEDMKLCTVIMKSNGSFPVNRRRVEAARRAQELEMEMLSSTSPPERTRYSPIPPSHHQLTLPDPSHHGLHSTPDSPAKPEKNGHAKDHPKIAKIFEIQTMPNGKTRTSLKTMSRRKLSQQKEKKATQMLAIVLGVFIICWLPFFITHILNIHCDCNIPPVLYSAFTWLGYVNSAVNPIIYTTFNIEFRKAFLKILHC
Chain of N-type calcium channel (P54287 whole entry): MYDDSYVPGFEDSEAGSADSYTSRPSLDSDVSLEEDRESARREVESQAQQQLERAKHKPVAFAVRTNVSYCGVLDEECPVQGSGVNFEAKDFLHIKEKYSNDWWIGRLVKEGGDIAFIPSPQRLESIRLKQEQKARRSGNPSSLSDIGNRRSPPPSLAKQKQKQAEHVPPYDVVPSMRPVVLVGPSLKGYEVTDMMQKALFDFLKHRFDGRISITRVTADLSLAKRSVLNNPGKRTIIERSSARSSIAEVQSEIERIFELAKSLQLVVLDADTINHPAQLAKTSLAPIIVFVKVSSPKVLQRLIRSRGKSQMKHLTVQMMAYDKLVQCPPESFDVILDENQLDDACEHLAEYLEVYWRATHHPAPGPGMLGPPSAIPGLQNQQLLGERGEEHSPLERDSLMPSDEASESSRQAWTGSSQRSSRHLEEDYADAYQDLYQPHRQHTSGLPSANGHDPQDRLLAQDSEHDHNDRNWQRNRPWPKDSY
Chain of N-type calcium channel (P54290 945-1091, further chain): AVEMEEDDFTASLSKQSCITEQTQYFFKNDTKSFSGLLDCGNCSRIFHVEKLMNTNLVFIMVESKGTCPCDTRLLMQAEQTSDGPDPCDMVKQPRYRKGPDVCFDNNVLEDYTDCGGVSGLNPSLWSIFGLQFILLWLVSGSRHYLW
Chain of N-type calcium channel (Q02294 whole entry): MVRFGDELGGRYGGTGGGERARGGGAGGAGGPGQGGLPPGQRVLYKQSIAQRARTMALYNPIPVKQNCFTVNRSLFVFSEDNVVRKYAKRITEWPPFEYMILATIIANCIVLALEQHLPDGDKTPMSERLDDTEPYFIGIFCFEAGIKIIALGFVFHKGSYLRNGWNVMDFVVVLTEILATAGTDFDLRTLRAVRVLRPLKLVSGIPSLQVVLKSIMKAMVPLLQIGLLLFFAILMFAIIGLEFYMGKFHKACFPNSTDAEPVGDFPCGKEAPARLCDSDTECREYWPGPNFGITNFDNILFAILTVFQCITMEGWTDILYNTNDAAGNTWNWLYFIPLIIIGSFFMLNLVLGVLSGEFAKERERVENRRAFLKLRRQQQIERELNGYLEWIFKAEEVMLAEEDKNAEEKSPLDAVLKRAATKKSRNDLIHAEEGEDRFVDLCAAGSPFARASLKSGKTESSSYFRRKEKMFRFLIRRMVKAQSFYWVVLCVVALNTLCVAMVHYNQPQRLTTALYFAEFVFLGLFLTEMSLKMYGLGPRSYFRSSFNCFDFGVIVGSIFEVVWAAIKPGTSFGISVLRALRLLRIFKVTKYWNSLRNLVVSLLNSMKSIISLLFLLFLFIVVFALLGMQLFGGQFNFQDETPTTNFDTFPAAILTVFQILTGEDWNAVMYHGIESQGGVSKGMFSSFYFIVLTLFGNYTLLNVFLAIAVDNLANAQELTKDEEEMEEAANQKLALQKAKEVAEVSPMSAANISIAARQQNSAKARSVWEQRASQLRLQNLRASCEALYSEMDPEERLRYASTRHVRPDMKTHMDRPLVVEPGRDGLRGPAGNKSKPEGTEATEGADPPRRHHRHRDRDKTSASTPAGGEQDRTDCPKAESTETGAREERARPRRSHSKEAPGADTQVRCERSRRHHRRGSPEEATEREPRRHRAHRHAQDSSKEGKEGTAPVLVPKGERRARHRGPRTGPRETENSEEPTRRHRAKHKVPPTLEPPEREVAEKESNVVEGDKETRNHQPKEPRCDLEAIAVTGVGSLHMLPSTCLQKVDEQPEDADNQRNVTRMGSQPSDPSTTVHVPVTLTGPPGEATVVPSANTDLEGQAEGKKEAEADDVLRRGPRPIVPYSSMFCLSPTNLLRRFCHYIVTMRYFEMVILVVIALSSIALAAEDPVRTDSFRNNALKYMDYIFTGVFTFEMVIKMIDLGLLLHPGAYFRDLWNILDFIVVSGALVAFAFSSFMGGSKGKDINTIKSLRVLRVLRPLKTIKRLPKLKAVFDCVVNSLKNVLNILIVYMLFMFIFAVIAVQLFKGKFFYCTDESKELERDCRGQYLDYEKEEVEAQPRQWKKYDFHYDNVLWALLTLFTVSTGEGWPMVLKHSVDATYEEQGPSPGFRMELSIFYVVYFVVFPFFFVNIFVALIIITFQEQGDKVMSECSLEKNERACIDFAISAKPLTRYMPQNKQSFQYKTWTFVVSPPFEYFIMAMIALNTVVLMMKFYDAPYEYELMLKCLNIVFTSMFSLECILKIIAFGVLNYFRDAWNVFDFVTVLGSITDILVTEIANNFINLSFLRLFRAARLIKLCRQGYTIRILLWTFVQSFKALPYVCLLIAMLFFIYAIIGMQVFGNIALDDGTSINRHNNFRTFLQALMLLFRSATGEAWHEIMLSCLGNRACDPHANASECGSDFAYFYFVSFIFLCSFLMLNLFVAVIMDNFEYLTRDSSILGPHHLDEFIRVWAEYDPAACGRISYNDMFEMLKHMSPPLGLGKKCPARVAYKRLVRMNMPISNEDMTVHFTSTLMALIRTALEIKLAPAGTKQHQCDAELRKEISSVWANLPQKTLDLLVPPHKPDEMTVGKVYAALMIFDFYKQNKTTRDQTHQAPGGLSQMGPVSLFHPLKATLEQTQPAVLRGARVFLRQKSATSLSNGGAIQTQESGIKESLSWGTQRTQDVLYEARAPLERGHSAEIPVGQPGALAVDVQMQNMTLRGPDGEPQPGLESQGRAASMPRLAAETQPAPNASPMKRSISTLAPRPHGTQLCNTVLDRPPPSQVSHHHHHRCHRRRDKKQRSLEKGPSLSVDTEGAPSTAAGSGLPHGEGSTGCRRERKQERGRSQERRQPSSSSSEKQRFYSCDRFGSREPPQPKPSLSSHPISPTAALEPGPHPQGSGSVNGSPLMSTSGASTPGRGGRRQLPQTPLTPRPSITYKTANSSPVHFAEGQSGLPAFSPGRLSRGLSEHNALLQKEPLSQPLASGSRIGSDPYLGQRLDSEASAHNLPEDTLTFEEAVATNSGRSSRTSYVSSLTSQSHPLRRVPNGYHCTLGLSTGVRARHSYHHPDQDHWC
Chain of N-type calcium channel (P54290 25-944, further chain): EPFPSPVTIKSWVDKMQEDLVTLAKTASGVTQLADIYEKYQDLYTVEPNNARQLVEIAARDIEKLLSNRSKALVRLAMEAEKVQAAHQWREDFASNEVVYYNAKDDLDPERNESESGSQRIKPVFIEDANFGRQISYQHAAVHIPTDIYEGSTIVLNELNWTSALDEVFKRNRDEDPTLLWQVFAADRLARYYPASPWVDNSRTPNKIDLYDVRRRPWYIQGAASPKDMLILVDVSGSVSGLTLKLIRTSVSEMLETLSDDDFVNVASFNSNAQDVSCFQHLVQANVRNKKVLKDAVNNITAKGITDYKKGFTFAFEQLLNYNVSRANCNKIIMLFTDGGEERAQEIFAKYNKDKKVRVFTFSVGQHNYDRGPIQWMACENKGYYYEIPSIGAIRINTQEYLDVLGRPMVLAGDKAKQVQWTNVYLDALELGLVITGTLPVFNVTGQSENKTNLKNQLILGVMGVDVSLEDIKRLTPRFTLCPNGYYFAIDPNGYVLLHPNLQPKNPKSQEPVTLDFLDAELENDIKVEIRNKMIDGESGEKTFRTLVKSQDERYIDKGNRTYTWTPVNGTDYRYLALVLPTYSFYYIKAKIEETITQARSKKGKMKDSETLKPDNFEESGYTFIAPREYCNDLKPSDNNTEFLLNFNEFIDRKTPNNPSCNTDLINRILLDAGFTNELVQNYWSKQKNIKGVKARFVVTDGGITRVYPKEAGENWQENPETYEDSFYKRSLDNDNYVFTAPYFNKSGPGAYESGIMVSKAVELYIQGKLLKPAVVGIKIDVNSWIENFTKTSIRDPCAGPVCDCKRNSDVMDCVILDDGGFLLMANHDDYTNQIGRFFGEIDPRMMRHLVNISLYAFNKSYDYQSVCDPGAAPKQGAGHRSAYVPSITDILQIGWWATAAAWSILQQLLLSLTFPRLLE
Chain of Somatostatin receptor 2 (A0A286XKC5 1-368): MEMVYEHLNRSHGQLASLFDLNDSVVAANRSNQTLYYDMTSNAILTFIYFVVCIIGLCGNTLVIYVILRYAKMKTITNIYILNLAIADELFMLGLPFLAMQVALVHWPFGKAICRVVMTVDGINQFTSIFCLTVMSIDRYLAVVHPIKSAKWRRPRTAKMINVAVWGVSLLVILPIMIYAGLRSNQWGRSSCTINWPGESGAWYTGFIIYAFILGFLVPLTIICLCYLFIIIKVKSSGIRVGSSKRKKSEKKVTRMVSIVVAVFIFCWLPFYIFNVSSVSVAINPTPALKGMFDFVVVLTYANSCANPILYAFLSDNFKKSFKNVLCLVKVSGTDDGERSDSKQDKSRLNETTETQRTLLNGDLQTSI

Compound	inhibition at 300 µM (Orexin receptor 1)	nH (Hill coefficient) (Orexin receptor 1)	inhibition at 100 µM (Orexin receptor 2)	nH (Hill coefficient) (Orexin receptor 2)	% Inhibition (Sodium Channel, Site 2; rat sodium channel site 2, conc. 10 μM)	AG. (%) (agonist) (Somatostatin receptor 2; conc. 3 μM)	ANT. (%) (antagonist) (Dopamine D2L receptor; conc. 10 μM)	binding (in words) (N-type calcium channel)	binding (in words) (Serotonin receptor)	binding (in words) (Melatonin receptor)	inhibition at 100 µM (Orexin receptor 1)	% Inhibition (Sodium Channel, Site 2; rat sodium channel site 2, conc. 3 μM)	AG. (%) (agonist) (Somatostatin receptor 2; conc. 0.3 μM)	ANT. (%) (antagonist) (Dopamine D2L receptor; conc. 3 μM)
COc1ccc(CCN(C)CCC[C@](C#N)(c2ccc(OC)c(OC)c2)C(C)C)cc1OC [(R)-(+)-verapamil hydrochloride]	57%	1.31	56%	1.81	72%	69%	58%	significant binding	significant binding	significant binding				
COc1ccc(CCN(C)CCC[C@@](C#N)(c2ccc(OC)c(OC)c2)C(C)C)cc1OC [(S)-(−)-verapamil hydrochloride]		1.27	79%	1.33				significant binding	significant binding	significant binding	58%	75%	61%	66%
